Test results from patent publication US20030191144A1, “Compounds, compositions and methods for modulating beta-amyloid production” (Active Pass Pharmaceuticals, Inc., priority 2001, published 2003).

Tests used:
[1] = tested on: Aβ42 from human neuroblastoma cells (hDAT; SK-N-MC); assay: Aβ42 ELISA, human neuroblastoma cells transiently transfected with APPsw; type: cell-based; conditions: 200 μM, 24 hours, p<0.001, n=11
Experimental: Human neuroblastoma cells (hDAT; SK-N-MC stably overexpression human dopamine transporter) were routinely maintained in DMEM supplemented with sodium pyruvate (1 mM) and 10% fetal bovine serum. […] Subsequently, 48 hours post-transfection the cells were rinsed with PBS and treated with vehicle (0.1% DMSO) or 100-200 μM pirinixic acid in serum free/phenol free DMEM for 24 hours. After the pharmacological treatment, the exposure media was collected and supplemented with 10% sample treatment buffer (40 mM sodium phosphate (pH 7.4), 40 mM triethanolamine, 0.1% Triton X-100, 200 mM NaCl, 2 mM EGTA, 0.1% Sodium azide), and assayed for either Aβ40 or AP42 by a calorimetric ELISA as per the manufacturer's protocol (Biosource International Inc, California). The cells were lysed in 0.1% Triton X-100 in PBS supplemented with 5 μM Propridium Iodide (Molecular probes, Eugene, Oreg.) and incubated at 37° C. for 30 minutes prior to measuring fluorescence. Secreted Aβ40 and Aβ42 levels were standardized against propridium iodide fluorescence as a measure of total cell number. Data are expressed as a percent of control and represent the mean±SD with n=11 and statistical significance determined by ANOVA with a Tukey's post hoc test at ***p<0.001.

[2] = tested on: Aβ42 from primary murine cortical neurons; assay: Aβ42 sandwich ELISA, primary murine cortical neurons infected with APP695; type: cell-based; conditions: primary murine cortical neurons infected with APP695, 5 μM, p<0.01, n=6
Experimental: The cDNA coding for human APP695 is cloned in the Smal site of pSFV-1 as described previously (Simons et al., J. Neurosci. 16:899-908, 1996; Tienari et al., Embo. J. 15:5218-29, 1996). PSFV-1/huAPP695 constructs are linearized,with SpeI and run-off transcription using SP6 polymerase is performed to produce mRNA. The transcribed mix of APP and pSFV-helper are cotransfected into BHK cells by electroporation to yield recombinant SFV (Olkkonen et al., J. Neurosci. Res. 35:445-51, 1993). BHK cells are grown in DMEM/F12 supplemented with 5% fetal calf serum, 2 mM L-glutamine, 100 U/ml penicillin, and […] streptomycin. Twenty-four hours after transfection, the culture supernatant containing infective recombinant SFV is collected. Aliquots are snap-frozen in liquid nitrogen and stored at −70° C. until use. […]
The levels of the longer Aβ42 peptide are quantified in both the conditioned media and cell extracts using a sandwich ELISA test (De Strooper et al., Nature 391:387-90, 1998; Vanderstichele et al., Amyloid. 7:245-58, 2000). […] Finally HRP substrate is added and the colorimetric reaction is quantitated spectrophotometrically using a Victor 2 (Wallac) equipped with a 450 nm filter. […] The Aβ42 concentrations in the samples are finally calculated based on the Aβ42 standards nonlinear regression equation and using Mathematica 4.1 software package (Wolfram Research, Champaign, Ill.). […]

Cc1cccc(Nc2cc(Cl)nc(SCC(=O)O)n2)c1C [pirinixic acid]
decrease in Aβ42 [1]: 40%
decrease in Aβ42 [2]: 20%
